The text below walks through data of patent US12240862B2, “Inhibitors of peptidylarginine deiminases” (Gilead Sciences, Inc., priority 2020, dated 2025).

For the assay, the target named is T1, human PAD4 (Homo sapiens, UniProt Q9UM07).
T1 construct: human PAD4 (NM_012387), A2P663, was PCR amplified; His-SUMO (N, cleaved yes); made in house; host or cells: E. coli BL21(DE3)
T1 sequence (Q9UM07 2-663): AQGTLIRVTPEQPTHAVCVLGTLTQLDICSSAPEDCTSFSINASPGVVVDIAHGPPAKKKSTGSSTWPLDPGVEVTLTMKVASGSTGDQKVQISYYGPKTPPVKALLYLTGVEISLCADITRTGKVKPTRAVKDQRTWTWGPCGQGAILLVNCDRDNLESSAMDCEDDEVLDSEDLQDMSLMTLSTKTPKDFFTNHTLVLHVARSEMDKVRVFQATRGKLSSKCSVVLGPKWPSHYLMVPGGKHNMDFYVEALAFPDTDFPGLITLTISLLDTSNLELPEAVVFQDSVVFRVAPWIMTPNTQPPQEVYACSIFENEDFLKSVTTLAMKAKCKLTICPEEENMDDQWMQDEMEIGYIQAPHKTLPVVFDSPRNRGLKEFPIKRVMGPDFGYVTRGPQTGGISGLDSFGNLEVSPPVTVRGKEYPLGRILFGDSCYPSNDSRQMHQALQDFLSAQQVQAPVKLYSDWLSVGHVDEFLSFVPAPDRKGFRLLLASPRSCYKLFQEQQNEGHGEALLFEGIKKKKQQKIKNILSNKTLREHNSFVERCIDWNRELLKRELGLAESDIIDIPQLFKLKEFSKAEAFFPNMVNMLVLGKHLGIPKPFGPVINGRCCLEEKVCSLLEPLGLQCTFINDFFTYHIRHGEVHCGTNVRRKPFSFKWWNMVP
Description: In vitro PAD4 BAEE biochemical assay. As to conditions: human PAD4, BAEE substrate; 5 nM PAD4, 2 mM calcium chloride, 3 mM BAEE; geometric mean of multiple experiments. The procedure, abridged: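 Tag-free recombinant hPAD4 (5 nM), 2 mM CaCl2, 3 mM BAEE, 50 mM MOPS pH 7.6, 2 mM DTT; 30 min compound preincubation, 2 h reaction, all 25 °C. EDTA quench; ammonia read via o-phthalaldehyde amine coupling, 1 h.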
The IC50 is the concentration at which inhibition is half-maximal. On to `COc1cc(C(=O)N2C[C@H]3CCC[C@@H]2[C@@H]3N)cc2nc(-c3cc4ccc(N(C(F)F)S(C)(=O)=O)nc4n3CC3CC3)c(C)n12` [Example 349, N-(2-(7-((1R,5R,8R)-8-amino-6-azabicyclo[3.2.1]octane-6-carbonyl)-5-methoxy-3-methylimidazo [1,2-a]pyridin-2-yl)-1-(cyclopropylmethyl)-1H-pyrrolo[2,3-b]pyridin-6-yl)-N-(difluoromethyl) methanesulfonamide], for which the IC50 worked out at 485 nM.

Consider `COc1cc(C(=O)N2[C@H]3CC[C@@H]2[C@H](N)C3)cc2nc(-c3cc4ccc([C@@H](C)Nc5ncccn5)nc4n3CC3CC3)c(C)n12` [Example 265, ((1R,2R,4S)-2-amino-7-azabicyclo[2.2.1]heptan-7-yl)(2-(1-(cyclopropylmethyl)-6-((R)-1-(pyrimidin-2-ylamino)ethyl)-1H-pyrrolo[2,3-b]pyridin-2-yl)-5-methoxy-3-methylimidazo[1,2-a]pyridin-7-yl)methanone], for which the IC50 turned out to be 72 nM.

On to `CS(=O)(=O)N(c1ccc2cc(-c3nc4cc(C(=O)N5[C@@H]6CC[C@@H](N)[C@H]5CC6)ccn4c3CC3CC3)n(CC3CC3)c2n1)C(F)F` [Example 436, ~{N}-[2-[7-[(1~{R},2~{R}, 5~{R})-2-amino-8-azabicyclo[3.2.1]octane-8-carbonyl]-3-(cyclopropylmethyl)imidazo [1,2-a]pyridin-2-yl]-1-(cyclopropylmethyl)pyrrolo [2,3-b]pyridin-6-yl]-~{N}-(difluoromethyl) methanesulfonamide], for which the IC50 came out at 202 nM.

`COc1cc(C(=O)N2[C@H]3CC[C@@H]2[C@H](N)C3)cc2nc(-c3cc4ccc([C@@H](C)NC(=O)c5cc(C)nc(Cl)c5)nc4n3CC3CC3)c(C)n12` [Example 46, ~{N}-[(1~{R})-1-[2-[7-[(1~{R},2~{R},4~{S})-2-amino-7-azabicyclo[2.2.1]heptane-7-carbonyl]-5-methoxy-3-methylimidazo [1,2-a]pyridin-2-yl]-1-(cyclopropylmethyl)pyrrolo[2,3-b]pyridin-6-yl]ethyl]-2-chloro-6-methylpyridine-4-carboxamide]: the IC50 was determined as 33.4 nM.

Regarding `CCc1ccc2cc(-c3nc4cc(C(=O)N5[C@H]6CC[C@@H]5[C@H](N)C6)cc(OC)n4c3C)n(-c3nccs3)c2n1` [Example 510, [(1~{R},2~{R},4~{S})-2-amino-7-azabicyclo [2.2.1]heptan-7-yl]-[2-[6-ethyl-1-(1,3-thiazol-2-yl)pyrrolo[2,3-b]pyridin-2-yl]-5-methoxy-3-methylimidazo[1,2-a]pyridin-7-yl]methanone], the IC50 was found to be 17100 nM.

For the compound `COc1cc(C(=O)N[C@H]2CNCC[C@@H]2C)cc2nc(-c3cc4ccc(N(C(F)F)S(C)(=O)=O)nc4n3CC3CC3)c(C)n12` [Example 288, 2-[1-(cyclopropylmethyl)-6-[difluoromethyl (methylsulfonyl)amino]pyrrolo[2,3-b]pyridin-2-yl]-5-methoxy-3-methyl-~{N}-[(3~{R},4~{S})-4-methylpiperidin-3-yl]imidazo[1,2-a]pyridine-7-carboxamide], the IC50 was 8360 nM.

Take `COc1cc(C(=O)N2CC[C@H]3OCCN[C@H]3C2)cc2nc(-c3cc4ccc(N(C(F)F)S(C)(=O)=O)nc4n3CC3CC3)c(C)n12` [Example 383, ~{N}-[2-[7-[(4~{a}~{S},8~{a}~{R})-2,3,4,4~{a},5,7,8,8~{a}-octahydropyrido[4,3-b][1,4]oxazine-6-carbonyl]-5-methoxy-3-methylimidazo[1,2-a]pyridin-2-yl]-1-(cyclopropylmethyl)pyrrolo[2,3-b]pyridin-6-yl]-~{N}-(difluoromethyl) methanesulfonamide]: the IC50 was determined as 447 nM.

Turning to `CCC1CC2CN(C(=O)c3cc(OC)n4c(C)c(-c5cc6ccc(N(C(F)F)S(C)(=O)=O)nc6n5CC5CC5)nc4c3)C1C2N` (centres unmarked) [Example 370], the IC50 worked out at 17100 nM.

As for `CCO[C@@H]1CCN(C(=O)c2cc(OC)n3c(C)c(-c4cc5ccc([C@@H](C)NC(=O)c6ccccc6)nc5n4CC4CC4)nc3c2)C[C@@H]1N` [Example 112, ~{N}-[(1~{R})-1-[2-[7-[(3~{S},4~{R})-3-amino-4-ethoxypiperidine-1-carbonyl]-5-methoxy-3-methylimidazo[1,2-a]pyridin-2-yl]-1-(cyclopropylmethyl)pyrrolo [2,3-b]pyridin-6-yl]ethyl]benzamide], the 50% inhibitory concentration (IC50) was found to be 307 nM.

On to `COc1cc(C(=O)N2[C@H]3CC[C@@H]2[C@H](N)C3)cc2nc(-c3cc4ccc([C@@H](C)NC(=O)c5ccnc(C)c5)nc4n3CC3CC3)c(C)n12` [Example 47, ~{N}-[(1~{R})-1-[2-[7-[(1~{R},2~{R},4~{S})-2-amino-7-azabicyclo[2.2.1]heptane-7-carbonyl]-5-methoxy-3-methylimidazo [1,2-a]pyridin-2-yl]-1-(cyclopropylmethyl)pyrrolo[2,3-b]pyridin-6-yl]ethyl]-2-methylpyridine-4-carboxamide], for which the IC50 came out at 24.2 nM.

Turning to `COc1cc(C(=O)N2CCC[C@@H](N)C2)cc2nc(-c3cc4ccc(O[C@@H](C)C(=O)NC56CC(F)(C5)C6)nc4n3CC3CC3)c(C)n12` [Example 631, (2~{S})-2-[2-[7-[(3~{R})-3-aminopiperidine-1-carbonyl]-5-methoxy-3-methylimidazo[1,2-a]pyridin-2-yl]-1-(cyclopropylmethyl)pyrrolo[2,3-b]pyridin-6-yl]oxy-~{N}-(3-fluoro-1-bicyclo[1.1.1]pentanyl)propanamide], the IC50 was 10000 nM.

Take `COc1cc(C(=O)N2[C@H]3CC[C@@H]2[C@H](N)C3)cc2nc(-c3cc4ccc(C5=CC(=O)N(C)CC5)nc4n3CC3CC3)c(C)n12` [Example 558, 4-[2-[7-[(1~{R},2~{R}, 4~{S})-2-amino-7-azabicyclo[2.2.1]heptane-7-carbonyl]-5-methoxy-3-methylimidazo[1,2-a]pyridin-2-yl]-1-(cyclopropylmethyl)pyrrolo [2,3-b]pyridin-6-yl]-1-methyl-2,3-dihydropyridin-6-one]: the IC50 was determined as 220 nM.

With `COc1cc(C(=O)N2CC[C@@H]3CCNC[C@@H]32)cc2nc(-c3cc4ccc(N(C(F)F)S(C)(=O)=O)nc4n3CC3CC3)c(C)n12` [Example 321, ~{N}-[2-[7-[(3~{a}~{S},7~{a}~{R})-2,3,3~{a},4,5,6,7,7~{a}-octahydropyrrolo[2,3-c]pyridine-1-carbonyl]-5-methoxy-3-methylimidazo[1,2-a]pyridin-2-yl]-1-(cyclopropylmethyl)pyrrolo [2,3-b]pyridin-6-yl]-~{N}-(difluoromethyl) methanesulfonamide], the IC50 came out at 278 nM.

In the case of `COc1cc(C(=O)N2[C@H]3CC[C@@H]2[C@H](N)C3)cc2nc(-c3cc4ccc([C@@H](C)NC(=O)c5ccccn5)nc4n3CC3CC3)c(C)n12` [Example 175, ~{N}-[(1~{R})-1-[2-[7-[(1~{R},2~{R},4~{S})-2-amino-7-azabicyclo[2.2.1]heptane-7-carbonyl]-5-methoxy-3-methylimidazo [1,2-a]pyridin-2-yl]-1-(cyclopropylmethyl)pyrrolo [2,3-b]pyridin-6-yl]ethyl]pyridine-2-carboxamide], the IC50 came to 181 nM.
